The record followed here is publication PMC5441137, “Positively Selected Sites at HCMV gB Furin Processing Region and Their Effects in Cleavage Efficiency” (Frontiers in Microbiology, 2017).

Assay [1] concerns the target T1, recombinant human furin (Homo sapiens, UniProt P09958).
T1 construct: made in house
Description: FRET peptide enzymatic kinetics assay of cleavage by furin. It is filed as biochemical. The settings on record: for Km / kcat: FRET peptide as furin substrate, 10 mM MES, 1 mM CaCl2, pH 7.0, 37°C, fluorescence λex 320 nm/λem 420 nm, non-linear Michaelis-Menten fit (Grafit). The method, then:
Recombinant human furin was expressed and purified as previously described ([Kacprzak et al., 2004]). The enzyme concentration was determined by active site titration using the inhibitor decanoyl-RVKR-CMK inhibitor in 10 mM MES buffer, 1 mM CaCl2, pH 7.0 and the substrate Abz-GIRRKRSVSHQ-EDDnp.
Seven synthetic peptides were obtained by solid-phase strategy, as previously described ([Izidoro et al., 2010]) using the Fmoc-procedure in an automated multiple solid-phase peptide synthesizer (PSSM 8 system, Shimadzu, Japan) ([Hirata et al., 1995]; [Korkmaz et al., 2008]). Peptides were prepared in dimethylformamide and stock concentrations measured spectrophotometrically at 365 nm (e = 17,300 M^-1.cm^-1). The quantum yields of the FRET peptides and the products of their hydrolysis were unchanged in all tested conditions.
The FRET peptides were assayed in 10 mM MES, 1 mM CaCl2, pH 7.0, using a F-2500 spectrofluorimeter (Hitachi, Tokyo, Japan), at 37°C ([Izidoro et al., 2010]), as previously described. Fluorescence changes were monitored continuously at λex = 320 nm and λem = 420 nm. The enzyme concentrations for initial rate determinations were chosen at a level intended to hydrolyze less than 5% of the amount of added substrate over the time course of data collection.
Three kinetic parameters from the Michaelis-Menten model were analyzed, representing enzyme-substrate (km), the catalysis constant (kcat) and the kcat/km ratio. The kinetic parameters km and kcat were calculated by non-linear regression using Grafit software (Erithacus Software, Horley, Surrey, UK). km, kcat, and standard errors (less than 10%) were calculated using Grafit software (v.5.0.13, Erithacus Software, Horley, Surrey, UK) with a non-linear least squares Michaelis-Menten fit associated with a matrix invertion fitting routine to refine kcat, km and allowing estimation of the errors. Standard deviations greater than 10% are due to low values obtained.

The target of assay [2] is T1, recombinant human furin. Put plainly: Analysis of furin-processed FRET substrates by LC-MS / HPLC / Maldi-TOF. It counts as biochemical. To be noted: FRET peptide 5 μM, spectrofluorimeter and Maldi-TOF after 2 h of incubation with furin. From the text:
In order to see if the mutations have an influence in cleavage, peptides containing the original reference sequences and their derivative containing positive selected mutations, were synthesized and tested against recombinant human furin. All substrates were cleaved after the double basic residues RR or KR as analyzed by Liquid Chromatography mass spectrometry (LC-MS) (Supplementary Figures S1–S3). The kcat/km ratio relates to the catalytic efficiency, meaning how fast in […] the enzyme reacts with the substrate once it encounters it. As a control, a peptide which contains a mutation previously shown to interfere with furin cleavage ([Strive et al., 2002]) was tested and as expected no cleavage was observed (Table 2 and Supplementary Figure S3).
Supplementary file Image_1.TIF: FIGURE S1 HPLC of furin-processed FRET substrates. […] Substrate and products were followed by fluorescence (Abz, ex320 nm; em420 nm) quenching (Eddnp, uv = 365 nm) indicating single cleavage site for all tested sequences. (A) gB3_22. (B) gB_20. (C) gB3_26 (D) gB2_18. (E) gB2_13. (F) gB2_19. Click here for additional data file.
Supplementary file Image_2.TIF: FIGURE S2 Mass spectra of furin-processed substrates. […] (A) gB3_22 substrate and products (1549.3, 678.7, and 888.7 Da). (B) gB2_13 (1634.4, 706.7, and 945.7 Da). (C) gB_20 (1604.3, 706.7, and 915.6 Da). […]

Setting [3] is: versus genotype 3 reference peptide (gB3_22).

T1 sequence (P09958 108-794): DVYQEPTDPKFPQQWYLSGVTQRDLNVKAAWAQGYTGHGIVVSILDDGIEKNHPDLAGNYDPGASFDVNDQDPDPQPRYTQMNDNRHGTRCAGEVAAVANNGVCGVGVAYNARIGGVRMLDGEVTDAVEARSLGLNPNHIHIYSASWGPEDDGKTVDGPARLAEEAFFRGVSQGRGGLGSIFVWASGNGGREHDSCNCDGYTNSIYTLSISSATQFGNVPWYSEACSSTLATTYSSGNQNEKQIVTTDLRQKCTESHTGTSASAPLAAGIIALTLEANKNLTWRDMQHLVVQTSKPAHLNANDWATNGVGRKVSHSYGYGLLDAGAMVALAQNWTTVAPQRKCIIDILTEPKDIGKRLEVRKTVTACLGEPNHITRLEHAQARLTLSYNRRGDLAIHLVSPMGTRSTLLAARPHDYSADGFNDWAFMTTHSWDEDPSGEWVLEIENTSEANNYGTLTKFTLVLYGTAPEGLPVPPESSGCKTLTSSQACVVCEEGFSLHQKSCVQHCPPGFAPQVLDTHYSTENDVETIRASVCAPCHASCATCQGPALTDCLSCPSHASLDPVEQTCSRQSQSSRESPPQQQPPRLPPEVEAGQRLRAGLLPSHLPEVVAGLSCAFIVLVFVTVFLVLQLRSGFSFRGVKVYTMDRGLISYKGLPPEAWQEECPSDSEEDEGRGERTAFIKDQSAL

“RTKR↓DTGNTTT [gB3_26, FRET peptide of gB genotype 3 with the positively selected mutation S461D]”: at recombinant human furin [1], the Km is 0.43 µM and the kcat was determined as 1.89 s⁻¹. Also, at recombinant human furin [1] (setting [3]), the “decrease in kcat/km ratio compared to the reference sequence” value is recorded as “threefold” and the “increase in the km compared to the reference sequence” value turned out to be 20 times.

As to “RTRR↓SRSDNNT [gB2_19, FRET peptide of gB genotype 2 with the positively selected mutation T462R]”, on recombinant human furin [1], the Km was found to be 0.23 µM and the kcat worked out at 5.06 s⁻¹. At recombinant human furin [1] (versus genotype 2 reference sequence (gB2_13)), the “increase of the kcat/km ratio compared to the reference sequence” value was 31 fold.

As to ATRASTSDNNT, the “processing by furin (cleavage observed or not)” value at recombinant human furin [2] is on record as “not processed by furin”.

RTRR↓STSDNNT [gB2_13]: on recombinant human furin [1], the Km is 3.19 µM and the kcat was 2.24 s⁻¹.

Consider “RTRR↓SMSDNNT [gB2_18, FRET peptide of gB genotype 2 with the positively selected mutation T462M]”, for which, on recombinant human furin [1], the Km came to 1.65 µM and the kcat was found to be 3.01 s⁻¹.

Take “RTRR↓SASDNNT [gB2_20, FRET peptide of gB genotype 2 with the positively selected mutation T462A]”: at recombinant human furin [1], the Km was found to be 0.69 µM and the kcat worked out at 4.06 s⁻¹.

For the substance RTKR↓STGNTTT [gB3_22], at recombinant human furin [1], the Km stood at 0.02 µM and the kcat was 0.25 s⁻¹.

One may read the Km as the concentration of substrate that gives half-maximal velocity. For orientation: kcat means the number of substrate molecules converted per active site and unit of time at saturation.
